Experimental data published in patent US20240287172A1, “PROTEIN BINDERS TO IRHOM2 EPITOPES” (SCIRHOM GMBH, priority 2019, published 2024).

System: LPS-induced release of endogenous TNFα from human THP-1 monocytic cells
Experiment: ELISA-based TNFα release assay, LPS-induced, THP-1 cells
Assay type: cell-based
Settings: LPS 50 ng/ml, 2 hours, antibodies purified from hybridoma supernatants and IgG at 10 μg/ml, Batimastat at 10 μM
Description: In the following study, ELISA-based TNFα release assays were performed to verify the inhibitory effects of the purified antibodies of the invention on LPS-induced release of endogenous TNFα from human THP-1 monocytic cells.
In brief, on day 1, Nunc black MaxiSorp® 96-well plates (Thermo Fisher Scientific, USA) were coated overnight with 100 μl per well of mouse anti-human TNFα capture antibody (provided as part of the DuoSet ELISA kit) at 4 μg/ml TBS at 4° C. On day 2, the capture antibody solution was removed and MaxiSorp® plates were blocked with 300 μl per well of TBS, 1% BSA at room temperature for 3 hours. […]
Following another round of 4 times washing with 350 μl TBS-T (Carl Roth, Germany) per well on a 96-head plate washer (Tecan Group, Switzerland) and careful removal of all buffer traces after the fourth cycle, 100 μl AttoPhos substrate solution (Promega, USA) per well was added for incubation in the dark at room temperature for 1 hour. Using an infinite M1000 (Tecan Group, Switzerland) microplate reader, the fluorescence of each well was collected at an excitation wavelength of 435 nm and an emission wavelength of 555 nm. […]

CNC(=O)[C@H](Cc1ccccc1)NC(=O)[C@H](CC(C)C)[C@H](CSc1cccs1)C(=O)NO [Batimastat]
inhibition at 10 µM: 96.2%
